Consider one compound from patent EP0726760B1, “SELF-EMULSIBLE FORMULATION FORMING AN OIL-IN-WATER EMULSION” (YISSUM RESEARCH DEVELOPMENT COMPANY OF THE HEBREW …, priority 1993, dated 1995).

The series in a line: Acute toxicity after intraperitoneal injection, 30 days. Conditions: mouse, in vivo, ip, printed 1:10 (0.5), i.p., read-out: % de survivants après 30 jours. On the set-up: species or system souris BALB/c. On the procedure:
La toxicité aiguë des formulations décrites dans les exemples II - IV, a été examinée sur des souris BALB/c pendant 30 jours. 0.5 ml de chacun des SEOF dilué au 10ème (plus que 300 fois constitue un surdosage) et au 100ème (plus que 30 fois constitue un surdosage) ont été injectés intrapéritonalement au groupe de 4-6 souris. L'état de l'animal a été surveillé pendant plusieurs heures après le processus et ensuite chaque jour, pandant un mois.

SMILES strings stand for the structures. Where two headings read alike, the source gives them in different places.

Regarding `OCc1ccccc1` [BA, alcool benzylique], the survival at 720 h is, setting by setting: (BA 1.5 % in water for injection) 100%; (BA 3 % in water for injection) 15%.
